Experimental data published in patent US20080161249A1, “Use of Novel Antibacterial Compounds” (SMITHKLINE BEECHAM CORPORATION, priority 2004, published 2008).
Values after ≈ are worked out from the molar mass of the structure shown. Where two headings read alike, the source gives them in different places.

Tests used:
[1] = test system: H. influenzae Q1; assay: MIC against H. influenzae Q1, alone and with subinhibitory concentrations of a second agent;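 further: combinations paired PDF inhibitors with macrolides, one class added below its own MIC to test whether the MIC of the other class dropped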; format: cell-based, Haemophilus influenzae; conditions: H. influenzae Q1
[2] = test system: S. pneumoniae 1629; assay: MIC against S. pneumoniae 1629, alone and with subinhibitory concentrations of a second agent; format: cell-based, Streptococcus pneumoniae; conditions: for MIC: Streptococcus pneumoniae, 1629, S. pneumoniae 1629
[3] = test system: S. aureus strain RN4220; assay: MIC against S. aureus strain RN4220, alone and in combination; format: cell-based, Staphylococcus aureus
[4] = test system: S. aureus WCUH29; assay: MIC against S. aureus WCUH29, alone and with subinhibitory concentrations of a second agent; format: cell-based, Staphylococcus aureus
[5] = test system: S. aureus strain PK1; assay: MIC against S. aureus strain PK1, alone and in combination; format: cell-based, Staphylococcus aureus
Excerpt: (§1) Subinhibitory Concentrations of PDF Inhibitors Decrease the MICs of Macrolides against Representative S. aureus Strains
(§2) Subinhibitory Concentrations of Macrolides Decrease the MICs of PDF Inhibitors against Representative S. aureus Strains

[6] = test system: S. aureus strain Oxford; assay: MIC against S. aureus strain Oxford, alone and in combination; format: cell-based, Staphylococcus aureus
Excerpt: as §1, §2

[7] = test system: S. aureus strain Smith; assay: MIC against S. aureus strain Smith, alone and in combination; format: cell-based, Staphylococcus aureus
[8] = no second agent, read-out: MIC, single agent
[9] = Staphylococcus aureus, macrolide alone, read-out: MIC, −Compound (1a)

For `CCCCC[C@H](CN(O)C=O)C(=O)NNc1nnc2cccc(C)c2n1` [Compound (1c), N-hydroxy((2R)-2-{[2-(5-methyl-1,2,4-benzotriazin-3-yl)hydrazino]carbonyl}heptyl)formamide], the “MIC, antibiotic with 0.25 ug/m (¼ MIC) of Azithromycin” value ([1]; +0.25 ug/m Azithromycin) was 0.5 µg/mL, the “fold decrease MIC, antibiotic with 0.25 ug/m (¼ MIC) of Azithromycin” value ([1]; +0.25 ug/m Azithromycin) was “[2] fold” and the “MIC, antibiotic with 0.5 ug/mL (½ MIC) of Azithromycin” value ([1]; +0.5 ug/mL Azithromycin) was 0.125 µg/mL. For the same compound, the “fold decrease MIC, antibiotic with 0.5 ug/mL (½ MIC) of Azithromycin” value ([1]; +0.5 ug/mL Azithromycin) was “[8] fold” and the “MIC, antibiotic alone” value ([1]; single agent (Example 8)) was 1 µg/mL (≈ 2.77 µM).

In the case of `CC[C@H]1OC(=O)[C@H](C)[C@@H](O[C@H]2C[C@@](C)(OC)[C@@H](O)[C@H](C)O2)[C@H](C)[C@@H](O[C@@H]2O[C@H](C)C[C@H](N(C)C)[C@H]2O)[C@](C)(O)C[C@@H](C)CN(C)[C@H](C)[C@@H](O)[C@]1(C)O` [Azithromycin, azithromycin], the “decrease of MIC by subinhibitory concentrations of Compound (1b)” value ([2]; S. pneumoniae) is reported as 2-8 fold, the “MIC, antibiotic with 0.06 ug/mL (¼ MIC) of Compound (1b)” value ([2]; S. pneumoniae 1629, +0.06 ug/mL Compound (1b)) is reported as 0.016 µg/mL and the “MIC, antibiotic alone” value ([2]; S. pneumoniae 1629, single agent) is reported as 0.03 µg/mL (≈ 0.0401 µM). The MIC [2, 8] was 0.03 µg/mL (≈ 0.0401 µM), the MIC [3, 9] was 1 µg/mL and the “MIC, +Compound (1a) [¼ × MIC]” value ([3]; with ¼ × MIC of Compound (1a)) was 0.25 µg/mL. The “MIC, antibiotic with 1 ug/mL (½ MIC) of Compound (1a)” value ([4]; S. aureus WCUH29, +1 ug/mL Compound (1a)) was 0.03 µg/mL, the “MIC, antibiotic alone” value ([4]; S. aureus WCUH29, single agent) was 1 µg/mL (≈ 1.34 µM) and the “decrease of MIC by subinhibitory concentrations of Compound (1a)” value ([4]; S. aureus, Example 3) was 8-32 fold. For the same compound, the MIC ([4]; Staphylococcus aureus, WCUH29, S. aureus WCUH29, no second agent, read-out: MIC, single agent) was 1 µg/mL (≈ 1.34 µM), the MIC [5, 9] was > 64 µg/mL and the “MIC, +Compound (1a) [¼ × MIC]” value ([5]; with ¼ × MIC of Compound (1a)) was 32 µg/mL. For the same compound, the “MIC, +Compound (1a) [½ × MIC]” value ([5]; with ½ × MIC of Compound (1a)) was 16 µg/mL, the MIC [6, 9] was 0.5 µg/mL and the “MIC, +Compound (1a) [¼ × MIC]” value ([6]; with ¼ × MIC of Compound (1a)) was 0.25 µg/mL. For the same compound, the “MIC, +Compound (1a) [½ × MIC]” value ([6]; with ½ × MIC of Compound (1a)) was 0.06 µg/mL, the “MIC, antibiotic with 0.5 ug/mL (¼ MIC) of Compound (1a)” value ([1]; +0.5 ug/mL Compound (1a)) was 0.25 µg/mL and the “MIC, antibiotic alone” value ([1]; single agent (Example 7)) was 1 µg/mL (≈ 1.34 µM). The MIC [7, 9] was 1 µg/mL and the “MIC, +Compound (1a) [¼ × MIC]” value ([7]; with ¼ × MIC of Compound (1a)) was 0.25 µg/mL.

For `O=CN(O)C[C@@H](CC1CCCC1)C(=O)NNc1nc(N2CCOCC2)cc(C(F)(F)F)n1` [Compound (1b), N-hydroxy-N-((2R)-2-(cyclopentylmethyl)-3-{N′-[4-(morpholin-4-yl)-6-(trifluoromethyl)-pyrimidin-2-yl]-hydrazino}-3-oxopropyl)-formamide], the “decrease of MIC by subinhibitory concentrations of azithromycin” value ([2]; S. pneumoniae) was 4-16 fold, the “decrease of MIC by subinhibitory concentrations of erythromycin” value ([2]; S. pneumoniae) was 8-32 fold and the “effect of subinhibitory concentrations of ciprofloxacin on antibacterial potency” value ([2]; S. pneumoniae) was “no effect”. The “effect of subinhibitory concentrations of mupirocin on antibacterial potency” value ([2]; S. pneumoniae) was “no effect”, the “Compound (1b) fold decrease MIC” value ([2]; S. pneumoniae 1629, +Azithromycin 0.008 μg/ml {¼ × MIC}) was “[4] fold” and the “Compound (1b) fold decrease MIC” value ([2]; S. pneumoniae 1629, +Azithromycin […] {½ × MIC}) was “[16] fold”. The “Compound (1b) fold decrease MIC” value ([2]; S. pneumoniae 1629, +Ciprofloxacin 0.25 μg/ml {½ × MIC}) was “[0] fold”, the “Compound (1b) fold decrease MIC” value ([2]; S. pneumoniae 1629, +Ciprofloxacin […] {¼ × MIC}) was “[0] fold” and the “Compound (1b) fold decrease MIC” value ([2]; S. pneumoniae 1629, +Erythromycin 0.008 μg/ml {¼ × MIC}) was “[8] fold”. The “Compound (1b) fold decrease MIC” value ([2]; S. pneumoniae 1629, +Erythromycin […] {½ × MIC}) was “[32] fold”, the “Compound (1b) fold decrease MIC” value ([2]; S. pneumoniae 1629, +Mupirocin 0.25 μg/ml {½ × MIC}) was “[0] fold” and the “Compound (1b) fold decrease MIC” value ([2]; S. pneumoniae 1629, +Mupirocin […] {¼ × MIC}) was “[0] fold”. It also gave an MIC ([2]; +Azithromycin 0.008 μg/ml {¼ × MIC}, read-out: Compound (1b) MIC) of 0.06 µg/mL (≈ 0.13 µM), an MIC ([2]; +Azithromycin […] {½ × MIC}, read-out: Compound (1b) MIC) of 0.016 µg/mL (≈ 0.0347 µM) and an MIC ([2]; +Ciprofloxacin 0.25 μg/ml {½ × MIC}, read-out: Compound (1b) MIC) of 0.25 µg/mL (≈ 0.543 µM). The MIC ([2]; +Ciprofloxacin […] {¼ × MIC}, read-out: Compound (1b) MIC) was 0.25 µg/mL (≈ 0.543 µM), the MIC ([2]; +Erythromycin 0.008 μg/ml {¼ × MIC}, read-out: Compound (1b) MIC) was 0.03 µg/mL (≈ 0.0652 µM) and the MIC ([2]; +Erythromycin […] {½ × MIC}, read-out: Compound (1b) MIC) was 0.008 µg/mL (≈ 0.0174 µM). It also gave an MIC ([2]; +Mupirocin 0.25 μg/ml {½ × MIC}, read-out: Compound (1b) MIC) of 0.25 µg/mL (≈ 0.543 µM), an MIC ([2]; +Mupirocin […] {¼ × MIC}, read-out: Compound (1b) MIC) of 0.25 µg/mL (≈ 0.543 µM) and an MIC [2, 8] of 0.25 µg/mL (≈ 0.543 µM).
